From ChEMBL document CHEMBL2346657, “Synthesis of novel 2-amino-4-(5'-substituted 2'-phenyl-1H-indol-3'-yl)-6-aryl-4H-pyran-3-carbonitrile derivatives as antimicrobial and antioxidant agents” (2013)
Activity calls are given as the source filed them. Unless noted, the rule behind the calls is not given here.

Tests used:
Type in all cases: functional
[1] = Antioxidant activity assessed as metal chelating activity by measuring inhibition of ferrozine-Fe2+ complex formation at 25 to 100 ug/ml
[2] = Antioxidant activity assessed as metal chelating activity by measuring inhibition of ferrozine-Fe2+ complex formation at 100 ug/ml; design: scale not given: the % may be the effect or the level left
[3] = Antioxidant activity assessed as ferric ion reducing activity at 75 ug/ml by FRAP assay
Aspergillus flavus [4] = experiment: Antimicrobial activity against Aspergillus flavus MTCC 1973 at 500 ug/ml after 72 hrs by cup plate method; settings: MTCC 1973, 72 h, read-out: IZ
Aspergillus flavus [5] = experiment: Antimicrobial activity against Aspergillus flavus MTCC 1973 at 750 ug/ml after 72 hrs by cup plate method; settings: MTCC 1973, 72 h, read-out: IZ
Aspergillus flavus [6] = experiment: Antimicrobial activity against Aspergillus flavus MTCC 1973 at 1000 ug/ml after 72 hrs by cup plate method; settings: MTCC 1973, 72 h, read-out: IZ
Aspergillus terreus [7] = experiment: Antimicrobial activity against Aspergillus terreus MTCC 1782 at 500 ug/ml after 72 hrs by cup plate method; settings: MTCC 1782, 72 h, read-out: IZ
Aspergillus terreus [8] = experiment: Antimicrobial activity against Aspergillus terreus MTCC 1782 at 750 ug/ml after 72 hrs by cup plate method; settings: MTCC 1782, 72 h, read-out: IZ
Aspergillus terreus [9] = experiment: Antimicrobial activity against Aspergillus terreus MTCC 1782 at 1000 ug/ml after 72 hrs by cup plate method; settings: MTCC 1782, 72 h, read-out: IZ
Aspergillus oryzae [10] = experiment: Antimicrobial activity against Aspergillus oryzae MTCC 3567 at 500 ug/ml after 72 hrs by cup plate method; settings: MTCC 3567, 72 h, read-out: IZ
Aspergillus oryzae [11] = experiment: Antimicrobial activity against Aspergillus oryzae MTCC 3567 at 750 ug/ml after 72 hrs by cup plate method; settings: MTCC 3567, 72 h, read-out: IZ
Aspergillus oryzae [12] = experiment: Antimicrobial activity against Aspergillus oryzae MTCC 3567 at 1000 ug/ml after 72 hrs by cup plate method; settings: MTCC 3567, 72 h, read-out: IZ
Aspergillus niger [13] = experiment: Antimicrobial activity against Aspergillus niger MTCC 281 at 500 ug/ml after 72 hrs by cup plate method; settings: MTCC 281, 72 h, read-out: IZ
Aspergillus niger [14] = experiment: Antimicrobial activity against Aspergillus niger MTCC 281 at 750 ug/ml after 72 hrs by cup plate method; settings: MTCC 281, 72 h, read-out: IZ
Aspergillus niger [15] = experiment: Antimicrobial activity against Aspergillus niger MTCC 281 at 1000 ug/ml after 72 hrs by cup plate method; settings: MTCC 281, 72 h, read-out: IZ
Pseudomonas aeruginosa [16] = experiment: Antimicrobial activity against Pseudomonas aeruginosa MTCC 1688 at 500 ug/ml after 24 hrs by cup plate method; settings: MTCC 1688, 24 h, read-out: IZ
Pseudomonas aeruginosa [17] = experiment: Antimicrobial activity against Pseudomonas aeruginosa MTCC 1688 at 750 ug/ml after 24 hrs by cup plate method; settings: MTCC 1688, 24 h, read-out: IZ
Pseudomonas aeruginosa [18] = experiment: Antimicrobial activity against Pseudomonas aeruginosa MTCC 1688 at 1000 ug/ml after 24 hrs by cup plate method; settings: MTCC 1688, 24 h, read-out: IZ
Klebsiella pneumoniae [19] = experiment: Antimicrobial activity against Klebsiella pneumoniae NCTC 13368 at 500 ug/ml after 24 hrs by cup plate method; settings: NCTC 13368, 24 h, read-out: IZ
Klebsiella pneumoniae [20] = experiment: Antimicrobial activity against Klebsiella pneumoniae NCTC 13368 at 750 ug/ml after 24 hrs by cup plate method; settings: NCTC 13368, 24 h, read-out: IZ
Klebsiella pneumoniae [21] = experiment: Antimicrobial activity against Klebsiella pneumoniae NCTC 13368 at 1000 ug/ml after 24 hrs by cup plate method; settings: NCTC 13368, 24 h, read-out: IZ
Staphylococcus aureus [22] = experiment: Antimicrobial activity against Staphylococcus aureus ATCC 29513 at 500 ug/ml after 24 hrs by cup plate method; settings: ATCC 29513, 24 h, read-out: IZ
Staphylococcus aureus [23] = experiment: Antimicrobial activity against Staphylococcus aureus ATCC 29513 at 750 ug/ml after 24 hrs by cup plate method; settings: ATCC 29513, 24 h, read-out: IZ
Staphylococcus aureus [24] = experiment: Antimicrobial activity against Staphylococcus aureus ATCC 29513 at 1000 ug/ml after 24 hrs by cup plate method; settings: ATCC 29513, 24 h, read-out: IZ
Escherichia coli [25] = experiment: Antimicrobial activity against Escherichia coli MTCC 723 at 500 ug/ml after 24 hrs by cup plate method; settings: MTCC 723, 24 h, read-out: IZ
Escherichia coli [26] = experiment: Antimicrobial activity against Escherichia coli MTCC 723 at 750 ug/ml after 24 hrs by cup plate method; settings: MTCC 723, 24 h, read-out: IZ
Escherichia coli [27] = experiment: Antimicrobial activity against Escherichia coli MTCC 723 at 1000 ug/ml after 24 hrs by cup plate method; settings: MTCC 723, 24 h, read-out: IZ
[28] = test system: Radical scavenging activity; experiment: Antioxidant activity assessed as DPPH radical scavenging activity at 75 ug/ml
[29] = test system: Radical scavenging activity; experiment: Antioxidant activity assessed as DPPH radical scavenging activity at 50 ug/ml

| Structure (SMILES) | Activity [1] | zone of inhibition at 500 µg/mL (Aspergillus flavus [4]) | zone of inhibition at 750 µg/mL (Aspergillus flavus [5]) | zone of inhibition at 1000 µg/mL (Aspergillus flavus [6]) | zone of inhibition at 500 µg/mL (Aspergillus terreus [7]) | zone of inhibition at 750 µg/mL (Aspergillus terreus [8]) | zone of inhibition at 1000 µg/mL (Aspergillus terreus [9]) | zone of inhibition at 500 µg/mL (Aspergillus oryzae [10]) | zone of inhibition at 750 µg/mL (Aspergillus oryzae [11]) | zone of inhibition at 1000 µg/mL (Aspergillus oryzae [12]) | zone of inhibition at 500 µg/mL (Aspergillus niger [13]) | zone of inhibition at 750 µg/mL (Aspergillus niger [14]) | zone of inhibition at 1000 µg/mL (Aspergillus niger [15]) | zone of inhibition at 500 µg/mL (Pseudomonas aeruginosa [16]) | zone of inhibition at 750 µg/mL (Pseudomonas aeruginosa [17]) | zone of inhibition at 1000 µg/mL (Pseudomonas aeruginosa [18]) | zone of inhibition at 500 µg/mL (Klebsiella pneumoniae [19]) | zone of inhibition at 750 µg/mL (Klebsiella pneumoniae [20]) | zone of inhibition at 1000 µg/mL (Klebsiella pneumoniae [21]) | zone of inhibition at 500 µg/mL (Staphylococcus aureus [22]) | also measured |
| --- | --- | --- | --- | --- | --- | --- | --- | --- | --- | --- | --- | --- | --- | --- | --- | --- | --- | --- | --- | --- | --- |
| N#Cc1c(N)c2c(N)c3c(nc2oc1=O)OC(c1ccc(Cl)cc1)=CC3c1c(-c2ccccc2)[nH]c2ccc(Cl)cc12 (centres undefined) | Active | 10 mm | 9 mm | 8 mm | 12 mm | 13 mm | 13 mm | 9 mm | 3 mm | 3 mm | 8 mm | 8 mm | 10 mm | 9 mm | 8 mm | 3 mm | 13 mm | 13 mm | 13 mm | 12 mm | Activity [2]: 79.7%; Activity [3]: Active; zone of inhibition at 750 µg/mL (Staphylococcus aureus [23]): 12 mm; zone of inhibition at 1000 µg/mL (Staphylococcus aureus [24]): 10 mm; zone of inhibition at 500 µg/mL (Escherichia coli [25]): 11 mm; zone of inhibition at 750 µg/mL (Escherichia coli [26]): 12 mm; zone of inhibition at 1000 µg/mL (Escherichia coli [27]): 14 mm |
| O=c1[nH]cnc2c1C(c1c(-c3ccccc3)[nH]c3ccc(Cl)cc13)C=C(c1ccc(Cl)cc1)O2 (centres undefined) | Active | 4 mm | 4 mm | 4 mm | 5 mm | 5 mm | 5 mm | 3 mm | 3 mm | 3 mm | 6 mm | 5 mm | 5 mm | 8 mm | 8 mm | 8 mm | 12 mm | 12 mm | 12 mm | 9 mm | Activity [28]: Active; Activity [29]: Active; zone of inhibition at 750 µg/mL (Staphylococcus aureus [23]): 9 mm; zone of inhibition at 1000 µg/mL (Staphylococcus aureus [24]): 12 mm; zone of inhibition at 500 µg/mL (Escherichia coli [25]): 9 mm; zone of inhibition at 750 µg/mL (Escherichia coli [26]): 9 mm; zone of inhibition at 1000 µg/mL (Escherichia coli [27]): 8 mm |
